According to publication PMC2783503 (Journal of medicinal chemistry, 2009):
Like-named read-outs stand apart in the source and are kept apart here. Non-standard residues stand in square brackets, D forms with d. Residues, ends and D or L forms follow the SMILES beside them. Phe(2,6-Me2,4-CONH2) = Cc1cc(C(N)=O)cc(C)c1C[C@H](N)C(=O)O; Dmt = Cc1cc(O)cc(C)c1C[C@H](N)C(=O)O; Tic = O=C(O)[C@@H]1Cc2ccccc2CN1

Key:
δ opioid receptor [1] = molecular target: T1, δ opioid receptor (Mus musculus, UniProt P32300); assay: MVD
T1 sequence (P32300 whole entry): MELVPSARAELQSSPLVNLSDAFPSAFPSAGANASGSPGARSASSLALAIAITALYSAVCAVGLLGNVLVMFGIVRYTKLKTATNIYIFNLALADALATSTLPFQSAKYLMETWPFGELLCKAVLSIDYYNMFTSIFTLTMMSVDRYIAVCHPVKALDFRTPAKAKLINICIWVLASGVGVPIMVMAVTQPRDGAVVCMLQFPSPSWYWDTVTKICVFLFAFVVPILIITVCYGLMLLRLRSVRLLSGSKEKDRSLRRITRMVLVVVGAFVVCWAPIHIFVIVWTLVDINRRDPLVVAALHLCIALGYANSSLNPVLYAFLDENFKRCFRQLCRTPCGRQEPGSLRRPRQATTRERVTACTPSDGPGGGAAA

μ opioid receptor [2] = assay: GPI; parameters: species or system guinea pig
δ opioid receptor [3] = molecular target: T1, δ opioid receptor; details: δ antagonist activity; ref Schiller et al.[10]; cited from earlier work
κ opioid receptor = κ opioid receptor (UniProt P41144); details: read-out: Ki^κ; ref Schiller et al.[10]; cited from earlier work
Chain of κ opioid receptor (P41144 whole entry): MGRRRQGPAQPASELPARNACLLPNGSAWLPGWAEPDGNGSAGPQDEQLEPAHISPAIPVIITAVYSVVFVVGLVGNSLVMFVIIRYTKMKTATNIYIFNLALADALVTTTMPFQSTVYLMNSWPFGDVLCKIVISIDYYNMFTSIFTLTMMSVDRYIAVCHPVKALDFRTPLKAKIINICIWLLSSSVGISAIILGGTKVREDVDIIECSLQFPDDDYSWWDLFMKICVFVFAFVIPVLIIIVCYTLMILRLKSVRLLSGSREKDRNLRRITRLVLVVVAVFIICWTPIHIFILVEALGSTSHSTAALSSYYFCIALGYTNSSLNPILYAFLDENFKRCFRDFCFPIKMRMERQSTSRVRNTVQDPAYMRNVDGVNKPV

μ opioid receptor [4] = details: result in words; ref Schiller et al.[10]; cited from earlier work
μ opioid receptor [5] = molecular target: μ opioid receptor (UniProt P33535); details: read-out: Ki^μ; ref Schiller et al.[10]; cited from earlier work
Chain of μ opioid receptor (UniProt P33535) (P33535 whole entry): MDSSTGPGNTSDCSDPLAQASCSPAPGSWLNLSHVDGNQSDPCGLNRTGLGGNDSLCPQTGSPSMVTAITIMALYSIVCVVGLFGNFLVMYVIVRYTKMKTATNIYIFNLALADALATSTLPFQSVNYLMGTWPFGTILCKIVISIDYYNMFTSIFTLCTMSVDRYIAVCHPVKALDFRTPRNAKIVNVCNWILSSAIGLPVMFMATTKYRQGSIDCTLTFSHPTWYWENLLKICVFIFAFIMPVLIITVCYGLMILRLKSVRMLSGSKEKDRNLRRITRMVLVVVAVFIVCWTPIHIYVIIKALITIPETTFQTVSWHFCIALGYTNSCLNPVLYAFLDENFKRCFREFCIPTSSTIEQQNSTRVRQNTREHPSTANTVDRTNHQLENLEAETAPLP

N[C@@H](Cc1ccc(O)cc1)C(=O)N1Cc2ccccc2C[C@H]1C(=O)O [compound 9, H-Tyr-Tic-OH] (H-Tyr-[Tic]-OH)
Kb (δ opioid receptor [1]): 263 ± 40 nM
GPI activity (μ opioid receptor [2]; result in words): inactive

Cc1cc(C(N)=O)cc(C)c1C[C@H](N)C(=O)N1Cc2ccccc2C[C@H]1C(=O)N[C@@H](Cc1ccccc1)C(=O)N[C@@H](Cc1ccccc1)C(=O)O [compound 12, H-Cdp-Tic-Phe-Phe-OH] (H-[Phe(2,6-Me2,4-CONH2)][Tic]FF-OH)
Kb (δ opioid receptor [1]): 0.627 ± 0.058 nM
GPI Ke^μ (μ opioid receptor [2]; μ antagonist activity): 3.07 ± 0.26 µM

H-Y[Tic]FF-OH [compound 8]
MVD Ke^δ (δ opioid receptor [3]): 4.80 ± 0.20 nM

H-[Dmt]-[Tic]-OH [compound 11]
Ki (κ opioid receptor): > 1000 nM
GPI activity (μ opioid receptor [4]): inactive
Ki (μ opioid receptor [5]): 1360 ± 160 nM

H-[Dmt][Tic]FF-OH [compound 10]
MVD Ke^δ (δ opioid receptor [3]): 0.196 ± 0.035 nM
